Experimental data as given in PubChem BioAssay AID2060906 (Molecular Pharmacology Branch, DTP, NCI, 2025).
Several values for one entry are separate records, joined by “and”; a condition that tells them apart may be missing. Equal values may be shown once.

System: 485176-168-R4-J1-PDC complex spheroid growth
Test: Anticancer human tumor 485176-168-R4-J1-PDC patient-derived pancreatic adenocarcinoma cell line growth inhibition [RAS]
Details: for viability, T/C: stronger effect = lower value
Text: RAS pathway inhibitors in Combinations in Complex Spheroids
A high-throughput screen of multi-cell type tumor spheroids was designed to identify active combinations of RAS pathway inhibitors and targeted small molecules. Complex spheroids include a stromal component modeled by human endothelial cells (HUVEC) and fibroblasts modeled by human mesenchymal stem cells (MSCs). The concentration ranges selected for each drug and investigational agent were based upon clinically achievable concentrations if the clinical Cmax of the agent was known.
Compounds. The drugs and investigational agents: abemaciclib (NSC768073), cobimetinib (NSC768068), divarasib (GDC6063, NSC841802), docetaxel (NSC628503), GDC-1971 (RLY-1971, NSC841576), gemcitabine (NSC613327), inavolisib (NSC800729), ipatasertib (NSC767898), KB-0742 (NSC834161), MRTX-1133 (NSC836407), osimertinib (NSC779217), RMC-4630 (NSC839698), RMC-6236 (NSC851965), RMC-6291 (NSC852671), Ro-3306 (NSC812927), sapanisertib (NSC764658), SN-38 (NSC673596), staurosporine (NSC755774), SY5609 (NSC837396), and tovorafenib (DAY101, NSC766906), were obtained from the National Cancer Institute (NCI) Developmental Therapeutics Program Chemical Repository. The FDA-approved anticancer drug set is available from the NCI Developmental Therapeutics Program. […] The stock solutions were prepared in dimethyl sulfoxide (DMSO, Sigma-Aldrich, St. Louis, MO, cat. D2650) at 800-fold the tested concentration and stored at -70 degrees C prior to their use. All drugs and investigational agents were tested over a range starting from a high concentration at or near the clinical Cmax and decreasing in half-log increments. If the clinical Cmax for an agent had not been determined, the highest concentration tested was 10 microM.
Cell Culture. All cells were maintained in an incubator at 37 degrees C and 5% CO2 with 95% humidity. The PDC lines were cultured according to standard operating procedures established by the NCI PDMR. All PDCs were thawed and cultured in Matrigel-coated flasks prepared with a working solution of 1X Ham's F-12 nutrient mix, without supplementation (Invitrogen, Waltham, MA, cat. 11765054), 100 U/mL penicillin-streptomycin (Invitrogen, cat. 15140122), and 2.5% Matrigel (Corning Inc., Corning, NY, cat. 354248) for the first three passages. The 362531-283-R-J2-PDC and 782815-120-R-J1-PDC lines were cultured in 6C/Colon 1B media, which includes advanced DMEM/F-12 (Thermo Fisher Scientific, cat. 12634028), 10 mM HEPES (Thermo Fisher Scientific, cat. 15630080), 1X GlutaMAX supplement (Thermo Fisher Scientific, cat. 35050061), 0.1 mg/mL primocin (InvivoGen, San Diego, CA, cat. ant-pm-2), 10% defined fetal bovine serum, heat inactivated (HyClone Laboratories Inc., Logan, UT, cat. SH30070.03HI), 50% L-WRN conditioned media (ATCC, cat. CRL-3276), 1.25 mM N-Acetyl-L-cysteine (Sigma-Aldrich, cat. A9165), 10 mM nicotinamide (Sigma-Aldrich, cat. N0636), 1X B-27 supplement (Thermo Fisher Scientific, cat. 17504044), 1X N-2 supplement (Thermo Fisher Scientific, cat. 17502048), 50 ng/mL human EGF (Thermo Fisher Scientific, cat. PHG0311), and 10 microM Y-27632 dihydrochloride (Tocris Bioscience, cat. 1254). The K12877-001-R-J1-PDC line was cultured in 6I media, which includes all 6C/Colon 1B media plus 10 ng/mL human FGF-10 (PeproTech, cat. 100-26), 1 ng/mL human FGF-2 (PeproTech, cat. 100-18B), 1 µM prostaglandin E2 (Tocris Bioscience, cat. 2296), […] hydrocortisone (Sigma-Aldrich, cat. H4001), and […] bovine insulin (Sigma-Aldrich, cat. I6634). The K86415-001-R-J1-PDC line was cultured in 6D media, which includes all 6C/Colon 1B media components minus the L-WRN conditioned media. The 485176-168-R4-J1-PDC was cultured in PANC media, which includes all 6C/Colon 1B media plus 100 ng/mL human FGF-10 (PeproTech, cat. 100-26), 500 nM SB-431542 (Selleckchem, cat. S1067), and 10 nM gastrin (Tocris Bioscience, cat. 3006). […]
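Note: spheroids exposed to compounds for seven days before readout.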
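Throughout, for viability, T/C: luminescence viability expressed relative to DMSO vehicle wells set as 100%.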

Row | Compound | IC50 (compound alone, run of 06/10/2024) [nM] | IC50 (curve of compound) | viability, T/C (compound 0.1 µM) | viability, T/C (compound 1 µM) | viability, T/C (compound 0.00316 µM) | viability, T/C (compound 0.01 µM) | viability, T/C (compound 0.0316 µM) | viability, T/C (compound 0.316 µM) | viability, T/C (compound 3.16 µM) | viability, T/C (compound 10 µM) | viability, T/C (compound 0.000316 µM) | viability, T/C (compound 0.001 µM) | viability, T/C (compound 0.000949 µM) | viability, T/C (compound 0.003 µM) | viability, T/C (compound 0.00949 µM) | viability, T/C (compound 0.03 µM) | viability, T/C (compound 0.0949 µM) | viability, T/C (compound 0.3 µM)
1 | C=CC(=O)Nc1cc(Nc2nccc(-c3cn(C)c4ccccc34)n2)c(OC)cc1N(C)CCN(C)C | – | > 1000 nM | – | 64.5% [middle of 4 runs] | 96.8% [middle of 4 runs] | 97.1% [middle of 4 runs] | 96.3% [middle of 4 runs] | 93.2% [middle of 4 runs] | – | – | – | – | – | – | – | – | – | –
2 | CC(C)NCC(C(=O)N1CCN(c2ncnc3c2C(C)CC3O)CC1)c1ccc(Cl)cc1 (stereo unspecified) | – | 2.32 µM [middle of 4 runs] | 93.9% [middle of 4 runs] | 58.8% [middle of 4 runs] | – | – | 96.6% [middle of 4 runs] | 80.4% [middle of 4 runs] | 47.7% [middle of 4 runs] | 35% [middle of 4 runs] | – | – | – | – | – | – | – | –
3 | CC1(C)CCC(Nc2ncc(C(F)(F)F)c(-c3c[nH]c4c(P(C)(C)=O)c(C#N)ccc34)n2)CN1 (stereo unspecified) | – | – | – | – | – | – | – | – | – | – | – | – | 110% (2×) and 103% and 111% | 90.3% [middle of 4 runs] | 77.3% [middle of 4 runs] | 62.6% [middle of 4 runs] | 50.2% [middle of 4 runs] | 49.1% [middle of 4 runs]

The next lines start with results.

Row | IC50 (compound alone, run of 06/10/2024) [nM] | IC50 (curve of compound) | Compound | viability, T/C (compound 0.1 µM) | viability, T/C (compound 1 µM) | viability, T/C (compound 0.00316 µM) | viability, T/C (compound 0.01 µM) | viability, T/C (compound 0.0316 µM) | viability, T/C (compound 0.316 µM) | viability, T/C (compound 3.16 µM) | viability, T/C (compound 10 µM) | viability, T/C (compound 0.000316 µM) | viability, T/C (compound 0.001 µM) | viability, T/C (compound 0.000949 µM) | viability, T/C (compound 0.003 µM) | viability, T/C (compound 0.00949 µM) | viability, T/C (compound 0.03 µM) | viability, T/C (compound 0.0949 µM) | viability, T/C (compound 0.3 µM)
4 | > 1000 | > 1000 nM | C=CC(=O)N1CCN(c2nc(OCC3CCCN3C)nc3c(F)c(-c4nc(N)cc(C)c4C(F)(F)F)c(Cl)cc23)C(C)C1 (stereo unspecified) | 98.5% [middle of 12 runs] | 102% [middle of 12 runs] | – | – | – | – | – | – | – | – | – | – | – | – | – | –
5 | – | < 31.6 nM | CC(=O)OC12COC1CC(O)C1(C)C(=O)C(O)C3=C(C)C(OC(=O)C(O)C(NC(=O)OC(C)(C)C)c4ccccc4)CC(O)(C(OC(=O)c4ccccc4)C21)C3(C)C (stereo unspecified) | 14.3% [middle of 4 runs] | 13.4% and 12.8% and 14.2% (2×) | – | – | 15.6% [middle of 4 runs] | 12.7% [middle of 4 runs] | 17.2% [middle of 4 runs] | 17.7% and 22.4% (2×) and 25.1% | – | – | – | – | – | – | – | –
6 | – | 31.2 nM [middle of 4 runs] | CC(C)n1nc(-c2ccc3oc(N)nc3c2)c2c(N)ncnc21 | 22.3% [middle of 4 runs] | – | 84.1% [middle of 4 runs] | 77.2% [middle of 4 runs] | 49.2% [middle of 4 runs] | – | – | – | 104% [middle of 4 runs] | 77.8% [middle of 4 runs] | – | – | – | – | – | –
7 | – | > 10000 nM | CC(Nc1ccc2c(c1)OCCn1cc(N3C(=O)OCC3C(F)F)nc1-2)C(N)=O (stereo unspecified) | 89.2% [middle of 4 runs] | 75.3% [middle of 4 runs] | – | – | 97.9% [middle of 4 runs] | 84.7% [middle of 4 runs] | 69.1% [middle of 4 runs] | 55.5% [middle of 4 runs] | – | – | – | – | – | – | – | –
8 | – | 2.72 µM [middle of 4 runs] | CC1(O)CCCC1n1c(=O)c(C(F)F)cc2cnc(NC3CCN(S(C)(=O)=O)CC3)nc21 (stereo unspecified) | 77.6% [middle of 4 runs] | 72.5% [middle of 4 runs] | – | – | 102% [middle of 4 runs] | 70.4% [middle of 4 runs] | 57.5% [middle of 4 runs] | 2.58% [middle of 4 runs] | – | – | – | – | – | – | – | –
